In publication PMC5963734 (Neuron, 2018):

Test system: PSD-95 - α-actinin interaction
Conditions: acute forebrain slices, 100 μM NMDA for 5 min; Figure 7

SMILES: CN[C@H](CC(=O)O)C(=O)O [NMDA]
- co-IP of CaM with PSD-95 after NMDA: strongly increased
- co-IP of α-actinin with PSD-95 after NMDA: nearly abolished
